Among the data in patent US10538512B2, “Aminoacylindazole immunomodulators for treatment of autoimmune diseases” (The Rockefeller University, priority 2016, dated 2020) are IC50 values, retold here.

A value given as a limit tells only on which side of the number the result lay.

This assay has as its target T1, Human FXIIa (Homo sapiens, UniProt P00748).
T1 construct: active coagulation factor XII (FXIIa); purchased Enzyme Research Labs
T1 sequence (P00748 373-615 limits assumed): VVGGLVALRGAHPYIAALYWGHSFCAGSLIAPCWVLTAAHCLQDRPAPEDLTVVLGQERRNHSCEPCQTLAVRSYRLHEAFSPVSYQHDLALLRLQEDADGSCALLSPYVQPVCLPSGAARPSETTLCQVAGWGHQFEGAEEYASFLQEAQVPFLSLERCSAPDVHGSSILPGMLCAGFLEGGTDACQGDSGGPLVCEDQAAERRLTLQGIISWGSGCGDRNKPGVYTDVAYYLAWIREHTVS
T1 sequence (P00748 20-372 partner limits assumed): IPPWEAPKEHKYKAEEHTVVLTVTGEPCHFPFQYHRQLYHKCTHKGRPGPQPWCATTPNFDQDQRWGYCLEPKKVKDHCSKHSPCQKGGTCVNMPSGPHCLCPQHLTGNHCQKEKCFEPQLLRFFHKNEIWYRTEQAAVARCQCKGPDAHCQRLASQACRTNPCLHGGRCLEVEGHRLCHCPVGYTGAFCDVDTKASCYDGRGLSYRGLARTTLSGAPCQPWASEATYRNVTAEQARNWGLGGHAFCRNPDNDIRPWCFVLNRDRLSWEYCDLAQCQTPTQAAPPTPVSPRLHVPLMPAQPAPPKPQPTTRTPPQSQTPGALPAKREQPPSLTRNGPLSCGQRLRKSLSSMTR
As to the kind of experiment: Factor XIIa (FXIIa) inhibitory activity, chromogenic substrate assay. It is filed as biochemical. Conditions: Human FXIIa 12.5 nM, Pefachrome XIIa 400 μM, 10 min preincubation. As for the experimental part: Factor XIIa (FXIIa) Inhibitory Activity:
In a 96-well clear bottom plate, 80 μl of assay buffer was added to each well. Assay buffer consists of 0.5× Hank's Balanced Salt Solution (Invitrogen), buffered with 25 mM HEPES pH 7.4 (Invitrogen) and 0.5× Tris-buffered saline with Tween-20 0.05% (Santa Cruz Biotechnology). Test compounds were first dissolved in DMSO (Sigma) and then 4 μl were added to test wells containing assay buffer. Serial dilutions using an automated multi-channel pipette were used to generate a concentration range of approximately 1-100 μM. […] 80 μl of this enzyme solution was added to the assay wells. The enzyme/compound mixtures were incubated for 10 minutes at room temperature. Chromogenic substrate (Pefachrome XIIa; Enzyme Research Labs) was added to assay wells at a final concentration of 400 μM. The assay plate was spun for 1 minute at 1500 g and then read at 37° C. in a SpectraMax M2 plate reader (λ=405 nm). Activity was quantified as the rate of change in absorbance, which corresponds to the rate of substrate cleavage.
In general, IC50 refers to the point on the concentration scale where inhibition reaches its midpoint. Read a low IC50 as greater potency in that assay. As for `Nc1nn(C(=O)[C@@H]2CCNc3c(Cl)cccc32)c2c1CC[C@@H](O)C2` (single isomer, unassigned) [Example 212, ((6R*)-3-amino-6-hydroxy-4,5,6,7-tetrahydroindazol-1-yl)((4R*)-8-chloro-1,2,3,4-tetrahydroquinolin-4-yl)methanone], the IC50 was over 100 µM.
Compound `Cc1cccc2c1NCC[C@H]2C(=O)n1nc2c(c1N)C[C@H](O)CC2` (single isomer, unassigned) [Example 217, ((5R*)-3-amino-5-hydroxy-4,5,6,7-tetrahydro-2H-indazol-2-yl)((4R*)-8-methyl-1,2,3,4-tetrahydroquinolin-4-yl)methanone] had an IC50 of 35 µM.
For `Nc1c2c(nn1C(=O)[C@@H]1CCNc3ccc(F)cc31)CC[C@@H](N)C2` (stereo in doubt) [Example 188, ((5R*)-3,5-diamino-4,5,6,7-tetrahydroindazol-2-yl)((4R*)-6-fluoro-1,2,3,4-tetrahydroquinolin-4-yl)methanone], the IC50 is over 80 µM.
Regarding `Nc1c2c(nn1C(=O)[C@H]1CCNc3ccc(F)cc31)CC[C@@H](N)C2` (stereo in doubt) [Example 189, ((5R*)-3,5-diamino-4,5,6,7-tetrahydroindazol-2-yl)((4S*)-6-fluoro-1,2,3,4-tetrahydroquinolin-4-yl)methanone], the midpoint of inhibition, the IC50, lay at 3 µM.
`Nc1c2c(nn1C(=O)[C@@H]1CCNc3ccc(F)cc31)CC[C@H](N)C2` (stereo in doubt) [Example 193, ((5S*)-3,5-diamino-4,5,6,7-tetrahydroindazol-2-yl)((4R*)-6-fluoro-1,2,3,4-tetrahydroquinolin-4-yl)methanone] displayed an IC50 of 4 µM.
The compound `Nc1c2c(nn1C(=O)c1cccc3ccccc13)CCCC2` [Example 39, (3-amino-4,5,6,7-tetrahydroindazol-2-yl)(naphthalen-1-yl)methanone] had an IC50 of 4 µM.
On to `Cc1[nH]c2ccccc2c1C(=O)n1nc2c(c1N)CCCC2` [Example 44, (3-amino-4,5,6,7-tetrahydroindazol-2-yl)(2-methyl-1H-indol-3-yl)methanone], for which the midpoint of inhibition, the IC50, lay at 11 µM.
The result for `Nc1c2c(nn1C(=O)c1cccc3[nH]ncc13)CCCC2` [Example 47, (3-amino-4,5,6,7-tetrahydroindazol-2-yl)(1H-indazol-4-yl)methanone] reads 0.03 µM; that for `Cc1cc2c(C(=O)n3nc4c(c3N)CCCC4)cccc2n1C(C)C` [Example 49, (3-amino-4,5,6,7-tetrahydroindazol-2-yl)(1-isopropyl-2-methyl-1H-indol-4-yl)methanone], 0.02 µM; that for `Cc1cc2c(C(=O)n3nc4c(c3N)CCCC4)cccc2s1` [Example 57, (3-Amino-4,5,6,7-tetrahydro-indazol-2-yl)-(2-methyl-benzo[b]thiophen-4-yl)-methanone], 0.06 µM.
As for `CCc1cc2c([nH]1)CCCC2C(=O)n1nc2c(c1N)CCCC2` (stereo not drawn) [Example 82, (3-amino-4,5,6,7-tetrahydroindazol-2-yl)(2-ethyl-4,5,6,7-tetrahydro-1H-indol-4-yl)methanone], the midpoint of inhibition, the IC50, lay at 0.04 µM.
The value for `CN1CCC(C(=O)n2nc3c(c2N)CCCC3)c2cccnc21` (stereo not drawn) [Example 87, (3-amino-4,5,6,7-tetrahydroindazol-2-yl)(1-methyl-1,2,3,4-tetrahydro-1,8-naphthyridin-4-yl)methanone] was 5 µM; that for `Cn1cc2c(n1)CCCC2C(=O)n1nc2c(c1N)CCCC2` (stereo not drawn) [Example 88, (3-amino-4,5,6,7-tetrahydroindazol-2-yl)(2-methyl-4,5,6,7-tetrahydro-2H-indazol-4-yl)methanone] was 0.85 µM; that for `Nc1nn(C(=O)C2CCCc3[nH]ccc32)c2c1CCCC2` (stereo not drawn) [Example 93, (3-amino-4,5,6,7-tetrahydroindazol-1-yl)(4,5,6,7-tetrahydro-1H-indol-4-yl)methanone] was over 100 µM.
Turning to `Cc1ccc2c(c1)NCCC2C(=O)n1nc2c(c1N)CCCC2` (stereo not drawn) [Example 101, (3-amino-4,5,6,7-tetrahydroindazol-2-yl)(7-methyl-1,2,3,4-tetrahydroquinolin-4-yl)methanone], the midpoint of inhibition, the IC50, lay at 0.9 µM.
